Assay results: PubChem BioAssay AID1963867 (Molecular Pharmacology Branch, DTP, NCI, 2024)

System: KRAS-mutant PDC tumor spheroid with HUVEC/MSC, viability
Experiment: Anticancer human tumor 327498-153-R-J2-PDC patient-derived uterine carcinosarcoma cell line growth inhibition [KRAS2]
Conditions: for IC50: curve of first compound; for viability, T/C: stronger effect = lower value
Procedure, shortened: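 Combination screen of spheroid viability in tumor-cell co-cultures with endothelial (HUVEC) and mesenchymal stem cell stroma. Each agent was tested in half-log dilutions, topping at clinical Cmax or at 10 microM without a known Cmax.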

[1] = second compound 0.1 µM, first compound 0.0316 µM
[2] = second compound 0.1 µM, first compound 0.1 µM
[3] = second compound 0.1 µM, first compound 0.316 µM
[4] = second compound 0.1 µM, first compound 1 µM
[5] = second compound 0.1 µM, first compound 3.16 µM
[6] = second compound 0.1 µM, first compound 10 µM
[7] = second compound 0.316 µM, first compound 0.0316 µM
[8] = second compound 0.316 µM, first compound 0.1 µM
[9] = second compound 0.316 µM, first compound 0.316 µM
[10] = second compound 0.316 µM, first compound 1 µM
[11] = second compound 0.316 µM, first compound 3.16 µM
[12] = second compound 0.316 µM, first compound 10 µM
[13] = second compound 1 µM, first compound 0.0316 µM
[14] = second compound 1 µM, first compound 0.1 µM
[15] = second compound 1 µM, first compound 0.316 µM
[16] = second compound 1 µM, first compound 1 µM
[17] = second compound 1 µM, first compound 3.16 µM
[18] = second compound 1 µM, first compound 10 µM
[19] = second compound 3.16 µM, first compound 0.0316 µM
[20] = second compound 3.16 µM, first compound 0.1 µM
[21] = second compound 3.16 µM, first compound 0.316 µM
[22] = second compound 3.16 µM, first compound 1 µM
[23] = second compound 3.16 µM, first compound 3.16 µM
[24] = second compound 3.16 µM, first compound 10 µM
[25] = second compound 0.1 µM, first compound 0.01 µM
[26] = second compound 0.316 µM, first compound 0.01 µM
[27] = second compound 1 µM, first compound 0.01 µM
[28] = second compound 3.16 µM, first compound 0.01 µM
[29] = second compound 10 µM, first compound 0.01 µM
[30] = second compound 10 µM, first compound 0.0316 µM
[31] = second compound 10 µM, first compound 0.1 µM
[32] = second compound 10 µM, first compound 0.316 µM
[33] = second compound 10 µM, first compound 1 µM
[34] = second compound 10 µM, first compound 3.16 µM
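Further: spheroids exposed to agents for seven days before reading.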
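Wherever viability, T/C is given: 100% = DMSO vehicle wells so lower means fewer viable cells.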

Work on `COC(=O)c1ccc2c(C(=Nc3ccc(N(C)C(=O)CN4CCN(C)CC4)cc3)c3ccccc3)c(O)[nH]c2c1` + C=CC(=O)N1CCN(c2nc(OCC3CCCN3C)nc3c2CCN(c2cccc4cccc(C)c24)C3)CC1CC#N yielded an IC50 (second compound 0.0316 µM) of 142 nM, an IC50 (second compound 0.1 µM) of under 31.6 nM and an IC50 (second compound 0.316 µM) of under 31.6 nM. It also gave an IC50 (second compound 1 µM) of under 31.6 nM, an IC50 (second compound 3.16 µM) of under 31.6 nM and a viability, T/C (second compound 0.0316 µM, first compound 0.0316 µM) of 52.8%. The viability, T/C (second compound 0.0316 µM, first compound 0.1 µM) was 54.7%, the viability, T/C (second compound 0.0316 µM, first compound 0.316 µM) was 42.9% and the viability, T/C (second compound 0.0316 µM, first compound 1 µM) was 23.4%. For the same compound, the viability, T/C (second compound 0.0316 µM, first compound 3.16 µM) was 8.28%, the viability, T/C (second compound 0.0316 µM, first compound 10 µM) was 7.36% and the viability, T/C [1] was 45.9%. For the same compound, the viability, T/C [2] was 42%, the viability, T/C [3] was 37.1% and the viability, T/C [4] was 13%. It also gave a viability, T/C [5] of 7.74%, a viability, T/C [6] of 5.84% and a viability, T/C [7] of 49.2%. For the same compound, the viability, T/C [8] was 41.6%, the viability, T/C [9] was 29.6% and the viability, T/C [10] was 14.4%. The viability, T/C [11] was 5.46%, the viability, T/C [12] was 4% and the viability, T/C [13] was 38.6%. For the same compound, the viability, T/C [14] was 21.5%, the viability, T/C [15] was 16.4% and the viability, T/C [16] was 9.18%. The viability, T/C [17] was 0.69%, the viability, T/C [18] was 1.72% and the viability, T/C [19] was 0.33%. For the same compound, the viability, T/C [20] was 0.16%, the viability, T/C [21] was 0.15% and the viability, T/C [22] was 0.12%. It also gave a viability, T/C [23] of 1.49% and a viability, T/C [24] of 0.32%.

`CN(C)C/C=C/C(=O)Nc1cc2c(Nc3ccc(F)c(Cl)c3)ncnc2cc1O[C@H]1CCOC1` + COc1cc2nc(C)nc(NC(C)c3cc(N)cc(C(F)(F)F)c3)c2cc1OC1CCOC1 was tested, and the IC50 (second compound 0.1 µM) was over 100 nM, the IC50 (second compound 0.316 µM) was over 100 nM and the IC50 (second compound 1 µM) was over 100 nM. It also gave an IC50 (second compound 3.16 µM) of 16.2 nM, an IC50 (second compound 10 µM) of over 100 nM and a viability, T/C (second compound 0.1 µM, first compound 0.000316 µM) of 88.6%. The viability, T/C (second compound 0.1 µM, first compound 0.001 µM) was 84%, the viability, T/C (second compound 0.1 µM, first compound 0.00316 µM) was 75.2% and the viability, T/C [25] was 76.7%. It also gave a viability, T/C [1] of 69.5%, a viability, T/C [2] of 68.1% and a viability, T/C (second compound 0.316 µM, first compound 0.000316 µM) of 72.5%. For the same compound, the viability, T/C (second compound 0.316 µM, first compound 0.001 µM) was 76%, the viability, T/C (second compound 0.316 µM, first compound 0.00316 µM) was 64% and the viability, T/C [26] was 67.3%. For the same compound, the viability, T/C [7] was 59.9%, the viability, T/C [8] was 62.4% and the viability, T/C (second compound 1 µM, first compound 0.000316 µM) was 90.8%. The viability, T/C (second compound 1 µM, first compound 0.001 µM) was 85.1%, the viability, T/C (second compound 1 µM, first compound 0.00316 µM) was 88.1% and the viability, T/C [27] was 86%. It also gave a viability, T/C [13] of 83.8%, a viability, T/C [14] of 84.8% and a viability, T/C (second compound 3.16 µM, first compound 0.000316 µM) of 60.9%. It also gave a viability, T/C (second compound 3.16 µM, first compound 0.001 µM) of 57.1%, a viability, T/C (second compound 3.16 µM, first compound 0.00316 µM) of 52.7% and a viability, T/C [28] of 48.2%. It also gave a viability, T/C [19] of 49.9%, a viability, T/C [20] of 49.5% and a viability, T/C (second compound 10 µM, first compound 0.000316 µM) of 58.5%. It also gave a viability, T/C (second compound 10 µM, first compound 0.001 µM) of 56.7%, a viability, T/C (second compound 10 µM, first compound 0.00316 µM) of 49.8% and a viability, T/C [29] of 49.3%. For the same compound, the viability, T/C [30] was 53.7% and the viability, T/C [31] was 54.6%.

`CC1COCCN1c1cc(-c2ccnn2C)c2ccnc(-c3ccn[nH]3)c2n1` (stereo not given) + CC1OCC2(CCN(c3cnc(Sc4ccnc(N)c4Cl)c(N)n3)CC2)C1N was tested, and the IC50 (second compound 0.1 µM) was 21 nM, the IC50 (second compound 0.316 µM) was under 10 nM and the IC50 (second compound 1 µM) was under 10 nM. It also gave an IC50 (second compound 3.16 µM) of under 10 nM, an IC50 (second compound 10 µM) of under 10 nM and a viability, T/C [25] of 70%. The viability, T/C [1] was 39%, the viability, T/C [2] was 8.18% and the viability, T/C [3] was 6.79%. It also gave a viability, T/C [4] of 8.72%, a viability, T/C [5] of 6.58% and a viability, T/C [26] of 37.1%. For the same compound, the viability, T/C [7] was 21.5%, the viability, T/C [8] was 8.27% and the viability, T/C [9] was 5.01%. The viability, T/C [10] was 7.64%, the viability, T/C [11] was 4.81% and the viability, T/C [27] was 31.1%. It also gave a viability, T/C [13] of 14.8%, a viability, T/C [14] of 7.95% and a viability, T/C [15] of 4.88%. It also gave a viability, T/C [16] of 4.72%, a viability, T/C [17] of 4.24% and a viability, T/C [28] of 23.2%. For the same compound, the viability, T/C [19] was 12.1%, the viability, T/C [20] was 8.55% and the viability, T/C [21] was 5.44%. It also gave a viability, T/C [22] of 5.2%, a viability, T/C [23] of 3.81% and a viability, T/C [29] of 19.6%. The viability, T/C [30] was 13.4%, the viability, T/C [31] was 7.85% and the viability, T/C [32] was 6.38%. It also gave a viability, T/C [33] of 5.34% and a viability, T/C [34] of 3.63%.

In the case of `COc1cc2nccc(Oc3ccc(NC(=O)C4(C(=O)Nc5ccc(F)cc5)CC4)cc3)c2cc1OC` + CNCc1ccccc1-c1csc(C(C)Nc2nc(C)nc3cc(OC)c(OC)cc23)c1, the IC50 (second compound 0.1 µM) is reported as 2040 nM, the IC50 (second compound 0.316 µM) is reported as 1910 nM and the IC50 (second compound 1 µM) is reported as 1670 nM. For the same compound, the IC50 (second compound 3.16 µM) was under 31.6 nM, the IC50 (second compound 10 µM) was under 31.6 nM and the viability, T/C [1] was 79.7%. For the same compound, the viability, T/C [2] was 80.7%, the viability, T/C [3] was 88.2% and the viability, T/C [4] was 85.9%. It also gave a viability, T/C [5] of 29.3%, a viability, T/C [6] of 0.95% and a viability, T/C [7] of 83%. For the same compound, the viability, T/C [8] was 72.5%, the viability, T/C [9] was 77.7% and the viability, T/C [10] was 73.3%. For the same compound, the viability, T/C [11] was 31.8%, the viability, T/C [12] was 0.58% and the viability, T/C [13] was 72.8%. The viability, T/C [14] was 73.5%, the viability, T/C [15] was 69.7% and the viability, T/C [16] was 69.5%. It also gave a viability, T/C [17] of 25.8%, a viability, T/C [18] of 0.3% and a viability, T/C [19] of 0.12%. It also gave a viability, T/C [20] of 0.17%, a viability, T/C [21] of 1.01% and a viability, T/C [22] of 0.1%. It also gave a viability, T/C [23] of 0.06%, a viability, T/C [24] of 0.15% and a viability, T/C [30] of 0.12%. For the same compound, the viability, T/C [31] was 0.11%, the viability, T/C [32] was 0.34% and the viability, T/C [33] was 0.34%. It also gave a viability, T/C [34] of 0.71% and a viability, T/C (second compound 10 µM, first compound 10 µM) of 0.81%.
